Test results taken from the NIST ThermoML archive (doi:10.1016/j.jct.2018.01.019).

Assay: molar heat capacity at constant pressure
Conditions: 101.33 kPa, Crystal 2, Small sample (50 mg) DSC

O=[Si]=O [silicon dioxide]
Conditions | molar heat capacity at constant pressure [J/K/mol]
794.62 K | 71.82
794.79 K | 71.62
794.95 K | 71.49
795.12 K | 71.46
795.29 K | 71.47
795.45 K | 71.5
795.62 K | 71.77
795.78 K | 71.9
795.95 K | 71.83
796.12 K | 71.66
796.29 K | 71.81
796.46 K | 72.04
796.62 K | 72.01
796.79 K | 71.86
796.96 K | 71.68
797.12 K | 71.48
797.29 K | 71.6
797.46 K | 71.73
797.62 K | 71.68
797.79 K | 71.65
797.96 K | 71.81
798.13 K | 71.82
798.29 K | 71.7
798.46 K | 71.81
798.62 K | 71.8
798.79 K | 71.9
798.96 K | 72.09
799.12 K | 72
799.29 K | 71.85
799.46 K | 71.85
799.62 K | 71.85
799.79 K | 71.96
799.96 K | 72.13
800.12 K | 72.26
800.29 K | 72.07
800.46 K | 71.86
800.63 K | 72
800.79 K | 72.09
800.96 K | 72.12
801.12 K | 72.16
801.29 K | 71.98
801.46 K | 71.96
801.63 K | 71.86
801.79 K | 71.9
801.96 K | 71.86
802.12 K | 71.92
802.29 K | 71.92
802.46 K | 72.04
802.62 K | 72.2
802.79 K | 72.1
802.96 K | 71.91
803.12 K | 71.68
803.29 K | 71.76
803.46 K | 71.76
803.63 K | 71.8
803.79 K | 72.11
803.96 K | 72.29
804.13 K | 72.1
804.29 K | 71.93
804.46 K | 71.94
804.62 K | 71.92
804.79 K | 71.93
804.96 K | 72.09
805.13 K | 72.17
805.29 K | 72.03
805.46 K | 72.03
805.63 K | 72
805.79 K | 72.07
805.96 K | 72.1
806.13 K | 72.19
806.29 K | 72.25
806.46 K | 72.37
806.63 K | 72.33
806.79 K | 72.24
806.96 K | 72.08
807.13 K | 71.96
807.3 K | 71.9
807.47 K | 72.16
807.63 K | 72.29
807.8 K | 72.39
807.97 K | 72.54
808.13 K | 72.48
808.3 K | 72.36
808.47 K | 72.31
808.64 K | 72.39
808.81 K | 72.34
808.97 K | 72.47
809.14 K | 72.61
809.3 K | 72.59
